Reference: US5202315A, “Cephalosporin compounds” (Lucky, Ltd., priority 1989, dated 1993)
In brackets after ≈: the same amount, converted by molar mass. Where two headings read alike, the source gives them in different places.

How the values were obtained:
Escherichia coli = assay: Antibacterial activity against clinically isolated strains, MIC; type: cell-based; settings: 38 clinical isolates, broth microdilution test
[1] = In-vivo absorbency (plasma concentrations & pharmacokinetic parameters); design: species or system SD rat (male); settings: plasma, SD male rat, iv 20 mg/kg; for concentration at 1 h: 60 min; for concentration at 1 h / concentration at 2 h: read-out: Plasma Conc.; for concentration at 2 h: 120 min; for AUC / half-life: two compartment model; for half-life: rat, iv, 20 mg/kg
Description: The blood samples from the femoral vein of the rats were taken every hour after administration, and analyzed by bio-assay(agar well method).
Tested animal: SD male Rat (220~340 g)

[2] = tested on: Staphylococcus aureus methicillin susceptible; assay: Antibacterial activity against clinically isolated strains, MIC; type: cell-based; settings: methicillin susceptible, 42 clinical isolates, broth microdilution test; for MIC90: read-out: MIC 90%
[3] = tested on: Staphylococcus aureus methicillin resistant; assay: as above; type: cell-based; settings: methicillin resistant, 7 clinical isolates, broth microdilution test; for MIC90: read-out: MIC 90%
Pseudomonas aeruginosa = assay: as above; type: cell-based
[4] = tested on: Enterobacter aerogenes ATCC 29751; assay: Antibacterial activity, MIC; type: cell-based; settings: Klebsiella aerogenes, ATCC29751; ATCC 29751; agar two-fold dilution, 37° C., 20 hours; read-out: MIC
Procedure, shortened: (§1)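 The compound is dispersed into Mueller-Hinton agar across a two-fold dilution series. Each strain is applied as 2 μl of a 10^7 CFU/ml suspension and grown 20 hours at 37 °C.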

[5] = tested on: Proteus mirabilis ATCC 25933; assay: Antibacterial activity, MIC; type: cell-based; settings: ATCC25933, ATCC 25933, agar two-fold dilution, 37° C., 20 hours, read-out: MIC
Procedure, shortened: as §1

[6] = tested on: Shigella sonnei ATCC 11060; assay: Antibacterial activity, MIC; type: cell-based; settings: ATCC11060, ATCC 11060, agar two-fold dilution, 37° C., 20 hours, read-out: MIC
Procedure, shortened: as §1

[7] = tested on: Acinetobacter calcoaceticus ATCC 15473; assay: Antibacterial activity, MIC; type: cell-based; settings: ATCC15473, ATCC 15473, agar two-fold dilution, 37° C., 20 hours, read-out: MIC
Procedure, shortened: as §1

[8] = tested on: Morganella morganii ATCC 8076h; assay: Antibacterial activity, MIC; type: cell-based; settings: ATCC8076H, agar two-fold dilution, 37° C., 20 hours
Procedure, shortened: as §1

[9] = tested on: Shigella flexneri ATCC 11836; assay: Antibacterial activity, MIC; type: cell-based; settings: ATCC11836, agar two-fold dilution, 37° C., 20 hours
Procedure, shortened: as §1

[10] = tested on: Enterobacter cloacae ATCC 27508; assay: Antibacterial activity, MIC; type: cell-based; settings: ATCC27508, ATCC 27508, agar two-fold dilution, 37° C., 20 hours, read-out: MIC
Procedure, shortened: as §1

[11] = tested on: Escherichia coli ATCC 10536; assay: Antibacterial activity, MIC; type: cell-based; settings: ATCC10536, agar two-fold dilution, 37° C., 20 hours
Procedure, shortened: as §1

[12] = tested on: Bacillus cereus ATCC 11778; assay: Antibacterial activity, MIC; type: cell-based; settings: ATCC11778, ATCC 11778, agar two-fold dilution, 37° C., 20 hours, read-out: MIC
Procedure, shortened: as §1

[13] = tested on: Citrobacter freundii ATCC 8090; assay: Antibacterial activity, MIC; type: cell-based; settings: ATCC8090, ATCC 8090, agar two-fold dilution, 37° C., 20 hours, read-out: MIC
Procedure, shortened: as §1

[14] = tested on: Providencia rettgeri ATCC 9250; assay: Antibacterial activity, MIC; type: cell-based; settings: ATCC9250, agar two-fold dilution, 37° C., 20 hours
Procedure, shortened: as §1

[15] = tested on: Pseudomonas aeruginosa ATCC 25619; assay: Antibacterial activity, MIC; type: cell-based; settings: ATCC25619, ATCC 25619, agar two-fold dilution, 37° C., 20 hours, read-out: MIC
Procedure, shortened: as §1

[16] = tested on: Bacillus megaterium ATCC 9885; assay: Antibacterial activity, MIC; type: cell-based; settings: Priestia megaterium, ATCC9885; ATCC 9885; agar two-fold dilution, 37° C., 20 hours; read-out: MIC
Procedure, shortened: as §1

[17] = tested on: Escherichia coli ATCC 25922; assay: Antibacterial activity, MIC; type: cell-based; settings: ATCC25922, agar two-fold dilution, 37° C., 20 hours
Procedure, shortened: as §1

[18] = tested on: Staphylococcus aureus ATCC 6538p; assay: Antibacterial activity, MIC; type: cell-based; settings: ATCC6538P, ATCC 6538p, agar two-fold dilution, 37° C., 20 hours, read-out: MIC
Procedure, shortened: as §1

[19] = tested on: Klebsiella pneumoniae ATCC 10031; assay: Antibacterial activity, MIC; type: cell-based; settings: ATCC10031, ATCC 10031, agar two-fold dilution, 37° C., 20 hours, read-out: MIC
Procedure, shortened: as §1

[20] = tested on: Salmonella typhimurium ATCC 14028; assay: Antibacterial activity, MIC; type: cell-based; settings: Salmonella enterica; ATCC 14028; agar two-fold dilution, 37° C., 20 hours; read-out: MIC
Procedure, shortened: as §1

[21] = tested on: Staphylococcus epidermidis ATCC 12228; assay: Antibacterial activity, MIC; type: cell-based; settings: ATCC12228, ATCC 12228, agar two-fold dilution, 37° C., 20 hours, read-out: MIC
Procedure, shortened: as §1

[22] = tested on: Pseudomonas aeruginosa ATCC 27853; assay: Antibacterial activity, MIC; type: cell-based; settings: ATCC27853, ATCC 27853, agar two-fold dilution, 37° C., 20 hours, read-out: MIC
Procedure, shortened: as §1

[23] = tested on: Proteus vulgaris ATCC 6059; assay: Antibacterial activity, MIC; type: cell-based; settings: ATCC6059, ATCC 6059, agar two-fold dilution, 37° C., 20 hours, read-out: MIC
Procedure, shortened: as §1

[24] = tested on: Serratia marcescens ATCC 27117; assay: Antibacterial activity, MIC; type: cell-based; settings: ATCC27117, ATCC 27117, agar two-fold dilution, 37° C., 20 hours, read-out: MIC
Procedure, shortened: as §1

[25] = In-vivo absorbency (plasma concentrations & pharmacokinetic parameters); design: species or system SD rat (male); settings: plasma, SD male rat, iv 20 mg/kg, read-out: Plasma Conc.
[26] = 54 clinical isolates, broth microdilution test

Row | Compound | MIC50 (Escherichia coli) [µg/mL] | MIC90 (Escherichia coli) [µg/mL] | concentration at 1 h [1] [ng/mL] | concentration at 2 h [1] [ng/mL] | AUC [1] [ng·h/mL] | half-life ([1]; read-out: T1/2 (α)) [min] | half-life ([1]; read-out: T1/2 (β)) [min] | MIC50 [2] [µg/mL] | MIC90 [2] [µg/mL] | MIC50 [3] [µg/mL] | MIC90 [3] [µg/mL] | MIC50 (Pseudomonas aeruginosa; [26]) [µg/mL] | MIC [4] [µg/mL] | MIC [5] [µg/mL] | MIC [6] [µg/mL] | MIC [7] [µg/mL] | MIC [8] [µg/mL] | MIC [9] [µg/mL] | MIC [10] [µg/mL] | MIC [11] [µg/mL] | further results
1 | C[n+]1c(N)cc(N)nc1SCC1=C(C(=O)[O-])N2C(=O)C(NC(=O)/C(=N\OC(C)(C)C(=O)O)c3csc(N)n3)[C@H]2SC1 (some centres unmarked) [Compound I-1, 7-[(Z)-2-(2-aminothiazol-4-yl)-2-(2-carboxyprop-2-oxyimino)acetamido]-3-(4,6-diamino-1-methylpyrimidinium-2-yl) thiomethyl-3-cephem-4-carboxylate] | 0.063 (≈ 0.101 µM) | 0.13 (≈ 0.208 µM) | 7700 | 1800 | 35300 | 3 | 26 | 2 (≈ 3.21 µM) | 2 (≈ 3.21 µM) | > 128 | > 128 | 1 (≈ 1.6 µM) | 1 (≈ 1.6 µM) | 0.031 (≈ 0.0497 µM) | 0.031 (≈ 0.0497 µM) | 2 (≈ 3.21 µM) | ≤ 0.008 | 0.031 (≈ 0.0497 µM) | 0.016 (≈ 0.0257 µM) | 0.063 (≈ 0.101 µM) | MIC90 (Pseudomonas aeruginosa; 54 clinical isolates, broth microdilution test, read-out: MIC 90%): 4 µg/mL (≈ 6.41 µM); MIC [12]: 64 µg/mL (≈ 103 µM); MIC [13]: 0.063 µg/mL (≈ 0.101 µM); MIC [14]: ≤ 0.008 µg/mL; MIC [15]: 1 µg/mL (≈ 1.6 µM); MIC [16]: 0.25 µg/mL (≈ 0.401 µM); MIC [17]: 0.063 µg/mL (≈ 0.101 µM); MIC [18]: 2 µg/mL (≈ 3.21 µM); MIC [19]: 0.063 µg/mL (≈ 0.101 µM); MIC [20]: 0.13 µg/mL (≈ 0.208 µM); MIC [21]: 1 µg/mL (≈ 1.6 µM); MIC [22]: 1 µg/mL (≈ 1.6 µM); MIC [23]: 0.031 µg/mL (≈ 0.0497 µM); MIC [24]: 0.063 µg/mL (≈ 0.101 µM); concentration at 1 min [25]: 152000 ng/mL; concentration at 2.5 min [25]: 101000 ng/mL; concentration at 5 min [25]: 65000 ng/mL; concentration at 10 min [25]: 45000 ng/mL; concentration at 20 min [25]: 29000 ng/mL; concentration at 40 min [25]: 14000 ng/mL
2 | CCO/N=C(\C(=O)NC1C(=O)N2C(C(=O)[O-])=C(CSc3nc(N)cc(N)[n+]3N)CSC12)c1csc(N)n1 (centres unmarked) [Compound I-16] | 0.13 (≈ 0.229 µM) | 0.25 (≈ 0.441 µM) | 8800 | 1900 | 38400 | 4 | 24 | 0.25 (≈ 0.441 µM) | 0.25 (≈ 0.441 µM) | > 32 | > 32 | 4 (≈ 7.06 µM) | 0.25 (≈ 0.441 µM) | 0.13 (≈ 0.229 µM) | 0.063 (≈ 0.111 µM) | 4 (≈ 7.06 µM) | ≤ 0.008 | 0.016 (≈ 0.0282 µM) | 0.016 (≈ 0.0282 µM) | 0.063 (≈ 0.111 µM) | MIC90 (Pseudomonas aeruginosa): 16 µg/mL (≈ 28.2 µM); MIC [12]: 4 µg/mL (≈ 7.06 µM); MIC [13]: 0.063 µg/mL (≈ 0.111 µM); MIC [14]: ≤ 0.008 µg/mL; MIC [15]: 0.5 µg/mL (≈ 0.882 µM); MIC [16]: 0.063 µg/mL (≈ 0.111 µM); MIC [17]: 0.063 µg/mL (≈ 0.111 µM); MIC [18]: 0.25 µg/mL (≈ 0.441 µM); MIC [19]: ≤ 0.008 µg/mL; MIC [20]: 0.25 µg/mL (≈ 0.441 µM); MIC [21]: 0.063 µg/mL (≈ 0.111 µM); MIC [22]: 2 µg/mL (≈ 3.53 µM); MIC [23]: 0.13 µg/mL (≈ 0.229 µM); MIC [24]: 0.13 µg/mL (≈ 0.229 µM); concentration at 1 min [25]: 149000 ng/mL; concentration at 2.5 min [25]: 106000 ng/mL; concentration at 5 min [25]: 79000 ng/mL; concentration at 10 min [25]: 52000 ng/mL; concentration at 20 min [25]: 32000 ng/mL; concentration at 40 min [25]: 13000 ng/mL
